The record followed here is US20100173983A1, “METHOD FOR INDUCING AUTOPHAGY” (priority 2007, published 2010).

Common to all, as to assay type: cell-based, Human
In data set [1] the test system is R-182 cells. As to the kind of experiment: Mitochondrial membrane depolarization, JC-1 flow cytometry. Conditions: cells treated 5 μg/ml. The text has this:
(§1) FIG. 8. Molecular evidence of autophagic cell death in R-182 ovarian cancer cells induced by Cpd 1. […] B, Beclin 1 binds to Bcl-2. Immunoprecipitation study using mitochondrial preparations of cells pre-treated with Cpd 1 as stated in A, and subjected to beclin 1 immunoprecitation. Immunoprecipitated fractions were washed in PBS, subjected to SDS-PAGE, blotted and then probed with a mouse anti-Bcl-2 antibody. Actin and Topo-1 were used as loading control. C, Depolarized cells resulting from over-expression of Bax and Beclin 1 following administration of Cpd 1. Cells were treated with Cpd 1 as described in A, pelleted and washed in HBSS and the cell pellet resuspended in the reaction buffer for JC-1 (Biovision, Inc. MitoCapture™ K250-100). HBSS-washed cells were analysed by flow cytometry (λexcit=488 nm and (λemit=530 nm for green fluorescence (depolarized) or 590 nm for red fluorescence (polarized). 10,000 gated events were measured with a BD FACScalibur. Results were expressed as mean±standard deviation (n=3).
To measure membrane depolarization cells were treated with Cpd 1 as described above, pelleted and washed in HBSS and the cell pellet resuspended in the reaction buffer for JC-1 (Biovision, Inc. MitoCapture™ K250-100). HBSS-washed cell pellets were resuspended in 1 mL aliquots of the Mitocapture reagent buffer with 1 μL of JC-1 solution in DMSO (Biovision).

The subject of data set [2] is endonuclease G. As to the kind of experiment: Western blot of R-182 nuclear preparations, endonuclease G. As to conditions: R-182 cells, 5 μg/ml over 24 hr.
Text: as §1
(§2) After treatment with Cpd 1, protein was extracted from cells and measured as previously described (Kamsteeg et al., 2003). For separation of the cytoplasmic and mitochondrial fractions, cell pellets were processed using the ApoAlert Cell Fractionation kit (Promega) according to the manufacturer's instructions. […]

Data set [3] deals with OSE (normal ovarian surface epithelial cells). As to the kind of experiment: Cell viability, CellTiter 96 assay, normal cells. As to conditions: concentrations up to 10 μg/ml, 24 hr exposure. As for the experimental part:
FIG. 1. Comparative cytotoxicity of dehydroequol and Compound I as described herein (Cpd 1) against normal and ovarian cancer cells: CP70 (cell line), R179, R182, R585 (primary ovarian cancer explants) and OSE (normal ovarian surface epithelial cells). […] Both compounds were tested at concentrations up to 10 μg/ml and exposed to cells for 24 hr.
Human EOC cell lines A2780, CP70, and OSE were propagated in RPMI plus 10% fetal bovine serum (FBS) (Gemini Bio-Products, Woodland, Calif.) at 37° C. in a 5% CO2 atmosphere. Primary EOC cells (R179, R182, R585) were isolated from malignant ovarian ascites and cultured as previously described (Kamsteeg et al., 2003). Dehydroequol and Compound 1 (Cpd 1) were obtained from Novogen (Australia). All other reagents were purchased from Sigma Chemical (St. Louis, Mo.). The pan caspase inhibitor Z-VAD-FMK was obtained from R&D Systems (Minneapolis, Minn.).
Cell viability was evaluated using the CellTiter 96 Aqueous One Solution Cell Proliferation Assay (Promega, Madison, Wis.) according to the manufacturer's instructions. The values from the treated cells were compared with the values generated from the untreated cells and reported as percent viability. Each experiment was performed in triplicate.

The subject of data set [4] is Bax. Description: Western blot of R-182 mitochondrial extracts, Bax. Conditions: R-182 cells, 5 μg/ml over 24 hr.
Text: as §1, §2

Data set [5] deals with R182 cells. Description: Phase-contrast microscopy, vacuole formation. Conditions: 5 μg/ml over 4 hr and 8 hr. As for the experimental part: FIG. 6. Phase-contrast images of R182 cells treated with vehicle (NT) or 5 μg/ml Cpd 1 over 4 hr and 8 hr (A).
R182 cells treated with Cpd 1 were observed microscopically to determine if morphological and structural alterations to cellular integrity took place. Cells treated with Cpd 1 were hyper-vacuolated (see FIG. 6) and the plasma membrane appeared to bleb or form folds. […] These morphological changes observed in Cpd 1 treated cells are considered the hall mark of autophagy with the increased vacuoles formation thought to result in autophagosomes which eventually fuse with lysosomes to form autolysosomes. These structures contain catabolic hydrolases which are released into the cytoplasm when the lysosomal membrane becomes compromised.

Data set [6] relates to caspase 9. As to the kind of experiment: Caspase-Glo 9 assay in R182 cells. As to conditions: R182 ovarian cancer explants; dose response and duration of exposure (5 μg/ml, 0-25 hr). Here is the method: FIG. 3. Comparative induction of caspase 9 in R182 ovarian cancer explants by Cpd 1 and dehydroequol using either dose response (A) or duration of exposure (B). Caspase 9 activity was assessed using the Caspase-Glo 9 assay.
For caspase activity assays, 10 μg of protein in 50 μL total volume was mixed with 50 μL of equilibrated Caspase-Glo 3/7, 8, or 9 reagents (Promega). After incubating at room temperature for 1 hour, luminescence was measured using TD 20/20 Luminometer (Turner Designs, Sunnyvale, Calif.). Blank values were subtracted and fold-increase in activity was calculated based on activity measured from untreated cells. Each sample was measured in triplicate.

The subject of data set [7] is cytochrome c. Description: Western blot of R-182 cytoplasmic extracts, cytochrome c. Conditions: R-182 cells, 5 μg/ml over 8 hr. As for the experimental part:
FIG. 9. Cpd 1-induced cell death involves cytochrome c translocation to the cytoplasm. R-182 cells treated with Cpd 1 (5 μg/ml) over 8 hr and the cytoplasmic and mitochondrial fractions were separated. […] Cox-4 was included to show the integrity of the mitochondrial preparation.
(§3) After treatment with Cpd 1, protein was extracted from cells and measured as previously described (Kamsteeg et al., 2003). For separation of the cytoplasmic and mitochondrial fractions, cell pellets were processed using the ApoAlert Cell Fractionation kit (Promega) according to the manufacturer's instructions. 20 μg protein was denatured in sample buffer (2.5% sodium dodecyl sulfate [SDS], 10% glycerol, 5% β-mercapto-ethanol, 0.15 M Tris, pH 6.8, and 0.01% bromophenol blue) and subjected to 12% SDS polyacrylamide gel electrophoresis (SDS-PAGE) as previously described (Kamsteeg et al., 2003). The following antibodies and concentrations were used: mouse anti-Bax (BD Biosciences, 1:500), rabbit anti-actin (Sigma, 1:10,000), rabbit anti-cytochrome c (BD Biosciences, 1:1,000), mouse anti-Cox-4 (BD Biosciences, 1:500), rabbit anti-beclin 1 (Santa Cruz Biotechnology, 1:600), mouse anti LC3 (Nanotools, 1:500). […] Proteins were observed using enhanced chemiluminescence (Pierce, Rockford, Ill.).
Cpd 1-induced cell death also involves cytochrome c translocation to the cytoplasm (FIG. 9). […]

In data set [8] the test system is LC3-II. As to the kind of experiment: Western blot of R-182 cytoplasmic preparations, LC3-II. As to conditions: R-182 cells, 5 μg/ml over 24 hr.
Text: as §1, §2

Data set [9] relates to mTOR. As to the kind of experiment: Western blot of R-182 lysates, mTOR.
Text: FIG. 10. The expression of upstream regulators of autophagy are also modulated in response to Cpd 1. […] B-actin was included as a loading control. B, Proposed mechanism of Cpd 1 induced autophagic cell death.
as §3

On to `COc1ccc([C@H]2c3ccc(O)c(C)c3OC[C@H]2c2ccc(O)cc2)cc1` (stereo in doubt) [Cpd 1, 3-(4-hydroxyphenyl)-4-(4-methoxyphenyl)-8-methylchroman-7-ol], for which the mitochondrial membrane depolarization result in data set [1] is reported as “results in mitochondrial membrane depolarization”. Besides, the “endonuclease G in nuclear preparations” value in [2] is listed as “upregulated”. Further, in [3], the “toxicity against normal OSE cells” value is “some toxicity”. Further, in data set [4], the “expression of Bax in mitochondrial extracts” value is “markedly upregulated over time”. In addition, the vacuole formation result in [5] is “vacuole formation is clearly evident”. Besides, the “caspase 9 activity” value in [6] is reported as “did not induce caspase 9 activity”. Besides, the “occurrence of cytochrome c in the cytoplasm” value in [7] is “increased over time”. The LC3-II expression result in data set [8] was “increased over time”. For the same molecule, in [9] (R-182 cells, 5 μg/ml), the mTOR expression entry is given as “reduced up to 120 minutes post exposure”. Moreover, the “phosphorylated mTOR levels in soluble extracts of cells” value in data set [9] (cells treated in vitro, compared to control) is recorded as “decreased”.
